Source: PMC2925389, “Pre-Steady-State Kinetic Analysis of Truncated and Full-Length Saccharomyces cerevisiae DNA Polymerase Eta” (Journal of Nucleic Acids, 2010)
Blank lines part the entries; values can stand above or below the molecule they belong to.

Legend:
full-length yPolη = biological target: T1, full-length yPolη (Saccharomyces cerevisiae, UniProt Q04049); experiment: pre-steady-state single-turnover nucleotide incorporation, rapid chemical quench; type: biochemical; details: 5 mM MgCl2, pH 7.5, 23°C
T1 construct: gene RAD30; full-length, residues 1-632, expressed and purified from yeast
T1 sequence (Q04049 1-632): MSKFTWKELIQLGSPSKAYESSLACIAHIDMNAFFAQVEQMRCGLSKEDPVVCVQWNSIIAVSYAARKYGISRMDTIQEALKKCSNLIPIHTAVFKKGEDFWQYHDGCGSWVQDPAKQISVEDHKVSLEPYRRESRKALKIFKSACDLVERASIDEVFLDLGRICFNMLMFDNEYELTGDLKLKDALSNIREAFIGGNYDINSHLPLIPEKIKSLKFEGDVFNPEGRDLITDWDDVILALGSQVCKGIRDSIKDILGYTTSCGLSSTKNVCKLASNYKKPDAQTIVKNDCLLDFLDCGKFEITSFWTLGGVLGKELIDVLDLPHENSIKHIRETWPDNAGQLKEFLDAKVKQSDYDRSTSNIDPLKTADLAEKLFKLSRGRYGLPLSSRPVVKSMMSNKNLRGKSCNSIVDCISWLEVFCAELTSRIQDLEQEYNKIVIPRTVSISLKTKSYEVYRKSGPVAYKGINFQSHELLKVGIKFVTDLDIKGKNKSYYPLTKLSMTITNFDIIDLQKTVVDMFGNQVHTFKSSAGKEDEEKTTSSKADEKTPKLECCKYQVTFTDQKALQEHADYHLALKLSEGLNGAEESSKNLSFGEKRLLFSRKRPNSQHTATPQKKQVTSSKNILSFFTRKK
Excerpt: pre-steady-state single-turnover nucleotide incorporation, rapid chemical quench on full-length yPolη

truncated yPolη = biological target: T2, truncated yPolη (Saccharomyces cerevisiae, UniProt Q04049); experiment: as above; type: biochemical; details: 5 mM MgCl2, pH 7.5, 23°C
T2 construct: gene RAD30; catalytic core (polymerase domain) 1-513, lacks C-terminal residues 514-632; N-terminal tag MGSSH6SSGLVPRGSH
T2 sequence (Q04049 1-513): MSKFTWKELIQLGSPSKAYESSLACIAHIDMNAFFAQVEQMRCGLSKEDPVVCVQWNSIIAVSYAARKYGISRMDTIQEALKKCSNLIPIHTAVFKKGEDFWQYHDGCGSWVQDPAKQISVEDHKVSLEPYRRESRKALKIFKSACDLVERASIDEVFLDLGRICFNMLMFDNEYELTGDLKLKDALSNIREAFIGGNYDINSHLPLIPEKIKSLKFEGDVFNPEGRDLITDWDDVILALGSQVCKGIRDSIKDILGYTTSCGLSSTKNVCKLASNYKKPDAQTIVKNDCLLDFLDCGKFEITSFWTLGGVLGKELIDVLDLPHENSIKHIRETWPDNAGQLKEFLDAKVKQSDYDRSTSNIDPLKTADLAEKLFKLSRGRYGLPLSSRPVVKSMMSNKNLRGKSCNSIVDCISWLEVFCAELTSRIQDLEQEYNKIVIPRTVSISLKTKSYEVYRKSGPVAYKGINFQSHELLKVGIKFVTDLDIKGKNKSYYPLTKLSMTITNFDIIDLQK

[1] = mismatched dNTP opposite template dA (D-1 21/41-mer DNA)
[2] = correct dNTP opposite template dA (D-1 21/41-mer DNA)

Kd (full-length yPolη; [1]): 156 ± 7 µM
Kd (truncated yPolη; correct dNTP opposite template dT (D-7 21/41-mer DNA)): 17 ± 3 µM
Structure (SMILES): Nc1ncnc2c1ncn2[C@H]1C[C@H](O)[C@@H](COP(=O)(O)OP(=O)(O)OP(=O)(O)O)O1 [dATP]

Kd (full-length yPolη; [1]): 70 ± 10 µM
Kd (truncated yPolη; correct dNTP opposite template dG (D-6 21/41-mer DNA)): 11.2 ± 0.8 µM
Structure (SMILES): Nc1ccn([C@H]2C[C@H](O)[C@@H](COP(=O)(O)OP(=O)(O)OP(=O)(O)O)O2)c(=O)n1 [dCTP]

Kd (full-length yPolη; [1]): 170 ± 40 µM
Kd (truncated yPolη; correct dNTP opposite template dC (D-8 21/41-mer DNA)): 6.8 ± 0.4 µM
Structure (SMILES): Nc1nc2c(ncn2[C@H]2C[C@H](O)[C@@H](COP(=O)(O)OP(=O)(O)OP(=O)(O)O)O2)c(=O)[nH]1 [dGTP]

Kd (full-length yPolη; [2]): 40 ± 10 µM
Kd (truncated yPolη; [2]): 15 ± 2 µM
Structure (SMILES): Cc1cn([C@H]2C[C@H](O)[C@@H](COP(=O)(O)OP(=O)(O)OP(=O)(O)O)O2)c(=O)[nH]c1=O [dTTP]
